Assay results: patent US20220325122A1, “Ink Set And Recording Method” (Seiko Epson Corporation, priority 2021, published 2022)

Settings: water at 20° C.; stated in words

COCCOC [ethylene glycol dimethyl ether]
miscibility with water: completely miscible with water
